In US5298511A, “Alkanoic acid derivatives” (Imperial Chemical Industries PLC, priority 1991, dated 1994) one finds IC50 data, which are given here for 1 compound.

This assay concerns the target T1, 5-LO (Homo sapiens, UniProt P09917).
T1 construct: incubating a test compound with heparinised human blood, prior to challenge with the calcium ionophore A23187; endogenous in cells; host or cells: blood cells in heparinised human whole blood, challenged with A23187
T1 sequence (P09917 1-674): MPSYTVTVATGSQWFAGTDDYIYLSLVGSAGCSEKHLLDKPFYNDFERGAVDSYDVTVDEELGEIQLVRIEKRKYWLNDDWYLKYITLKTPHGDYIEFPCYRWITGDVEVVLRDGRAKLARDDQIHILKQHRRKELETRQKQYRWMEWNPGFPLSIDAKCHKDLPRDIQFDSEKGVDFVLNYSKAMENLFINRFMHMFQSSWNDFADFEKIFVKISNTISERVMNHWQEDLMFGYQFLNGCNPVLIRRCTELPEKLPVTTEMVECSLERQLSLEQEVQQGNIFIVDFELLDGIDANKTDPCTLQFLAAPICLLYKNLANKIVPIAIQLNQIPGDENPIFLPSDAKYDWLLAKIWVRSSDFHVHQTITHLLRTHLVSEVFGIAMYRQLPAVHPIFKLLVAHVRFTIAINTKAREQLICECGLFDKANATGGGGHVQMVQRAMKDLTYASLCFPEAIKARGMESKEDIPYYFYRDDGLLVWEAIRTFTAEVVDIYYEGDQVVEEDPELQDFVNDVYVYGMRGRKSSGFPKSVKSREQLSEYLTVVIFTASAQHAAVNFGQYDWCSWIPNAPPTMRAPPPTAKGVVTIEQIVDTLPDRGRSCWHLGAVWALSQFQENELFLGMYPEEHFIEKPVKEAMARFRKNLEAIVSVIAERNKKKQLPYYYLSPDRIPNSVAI
As to the kind of experiment: test a) in vitro heparinised human blood challenged with calcium ionophore A23187; LTB4 by radioimmunoassay. It counts as cell-based. As to the method: a) An in vitro assay system involving incubating a test compound with heparinised human blood, prior to challenge with the calcium ionophore A23187 and then indirectly measuring the inhibitory effects on 5-LO by assaying the amount of LTB4 using specific radioimmunoassays described by Carey and Forder (F. Carey and R. A. Forder, Prostaglandins, Leukotrienes Med., 1986, 22, 57; Prostaglandins, 1984, 28, 666; Brit. J. Pharmacol. 1985, 84, 34 P) which involve the use of a protein-LTB4 conjugate produced using the procedure of Young et alia (Prostaglandins, 1983, 26(4), 605-613). The effects of a test compound on the enzyme cyclooxygenase (which is involved in the alternative metabolic pathway for arachidonic acid and gives rise to prostaglandins, thromboxanes and related metabolites) may be measured at the same time using the specific radioimmunoassay for thromboxane B2 (TxB2) described by Carey and Forder (see above). This test provides an indication of the effects of a test compound against 5-LO and also cyclooxygenase in the presence of blood cells and proteins. It permits the selectivity of the inhibitory effect on 5-LO or cyclooxygenase to be assessed.

Structures are written as SMILES.

In the case of `CCOC(=O)C(CC)(CC)c1cccc(OCc2ccc3ccccc3c2)c1` [Example 1, ethyl 2-ethyl-2-[3-(naphth-2-ylmethoxy)phenyl]butyrate], the IC50 (as a rule, the point on the concentration scale where inhibition reaches its midpoint) was 200 nM.
